Test results reported in ChEMBL document CHEMBL5321294, “Evolution of Slow-Binding Inhibitors Targeting Histone Deacetylase Isoforms” (J Med Chem, 2023).

How the values were obtained:
Histone deacetylase 3 [1] = biological target: T1, Histone deacetylase 3 (Homo sapiens, UniProt O15379)
Description: Binding affinity to HDAC3 (unknown origin) using Ac-LGKac-AMC as substrate assessed as half life

Histone deacetylase 2 [2] = biological target: T2, Histone deacetylase 2 (Homo sapiens, UniProt Q92769)
Description: Binding affinity to HDAC2 (unknown origin) using Ac-LGKac-AMC as substrate assessed as half life

Histone deacetylase 1 [3] = biological target: T3, Histone deacetylase 1 (Homo sapiens, UniProt Q13547)
Histone deacetylase 1 [4] = biological target: T3, Histone deacetylase 1; remark: listed apart in the source
Description: Binding affinity to HDAC1 (unknown origin) using Ac-LGKac-AMC as substrate assessed as half life

Histone deacetylase 1 [5] = biological target: T3, Histone deacetylase 1; remark: listed apart in the source
Histone deacetylase 2 [6] = biological target: T2, Histone deacetylase 2; remark: listed apart in the source
Description: Binding affinity to HDAC2 (unknown origin) using Ac-LGKac-AMC as substrate assessed as residence time

Histone deacetylase 2 [7] = biological target: T2, Histone deacetylase 2; remark: listed apart in the source
Histone deacetylase 3 [8] = biological target: T1, Histone deacetylase 3; remark: listed apart in the source
[9] = Half life in C57BL/6 mouse brain at 45 mg/kg, ip; format: ADME, organism-based
Histone deacetylase 3 [10] = biological target: T1, Histone deacetylase 3; assay: Binding affinity to HDAC3 (unknown origin) assessed as residence time
Histone deacetylase 3 [11] = biological target: T1, Histone deacetylase 3; assay: Binding affinity to HDAC3 (unknown origin) assessed as binding constant(k2)
Histone deacetylase 3 [12] = biological target: T1, Histone deacetylase 3; assay: Binding affinity to HDAC3 (unknown origin) assessed as binding constant(k-2)
Homo sapiens [13] = organism: Homo sapiens; assay: Selectivity index, ratio of IC50 for Inhibition of human HDAC3 to IC50 for Inhibition of human HDAC1
Homo sapiens [14] = organism: Homo sapiens; assay: Selectivity index, ratio of IC50 for Inhibition of human HDAC3 to Inhibition of human IC50 for HDAC2
Histone deacetylase 3 [15] = biological target: T1, Histone deacetylase 3; assay: Binding affinity to human HDAC3 assessed as residence time
Histone deacetylase 3 [16] = biological target: T1, Histone deacetylase 3; assay: Binding affinity to human HDAC3 assessed as dissociation rate constant (Koff)
Histone deacetylase 3 [17] = biological target: T1, Histone deacetylase 3; assay: Binding affinity to human HDAC3 assessed as half life
Histone deacetylase 3 [18] = biological target: T1, Histone deacetylase 3; assay: Binding affinity to human HDAC3 assessed as binding rate constant (Kon)
Histone deacetylase 2 [19] = biological target: T2, Histone deacetylase 2; assay: Binding affinity to human HDAC2 assessed as residence time
Histone deacetylase 2 [20] = biological target: T2, Histone deacetylase 2; assay: Binding affinity to human HDAC2 assessed as half life
Histone deacetylase 1 [21] = biological target: T3, Histone deacetylase 1; assay: Binding affinity to human HDAC1 assessed as half life
Histone deacetylase 1 [22] = biological target: T3, Histone deacetylase 1; assay: Binding affinity to HDAC1 (unknown origin) assessed as binding constant (Kon)
Histone deacetylase 1 [23] = biological target: T3, Histone deacetylase 1; assay: Binding affinity to HDAC1 (unknown origin) assessed as dissociation constant (Koff)
Histone deacetylase 1 [24] = biological target: T3, Histone deacetylase 1; conditions: HEK293T
Histone deacetylase 1 [25] = biological target: T3, Histone deacetylase 1; assay: Binding affinity to human HDAC1 using AcLGK (Ac) -AMC as substrate assessed as residence time

T3 sequence (Q13547 whole entry): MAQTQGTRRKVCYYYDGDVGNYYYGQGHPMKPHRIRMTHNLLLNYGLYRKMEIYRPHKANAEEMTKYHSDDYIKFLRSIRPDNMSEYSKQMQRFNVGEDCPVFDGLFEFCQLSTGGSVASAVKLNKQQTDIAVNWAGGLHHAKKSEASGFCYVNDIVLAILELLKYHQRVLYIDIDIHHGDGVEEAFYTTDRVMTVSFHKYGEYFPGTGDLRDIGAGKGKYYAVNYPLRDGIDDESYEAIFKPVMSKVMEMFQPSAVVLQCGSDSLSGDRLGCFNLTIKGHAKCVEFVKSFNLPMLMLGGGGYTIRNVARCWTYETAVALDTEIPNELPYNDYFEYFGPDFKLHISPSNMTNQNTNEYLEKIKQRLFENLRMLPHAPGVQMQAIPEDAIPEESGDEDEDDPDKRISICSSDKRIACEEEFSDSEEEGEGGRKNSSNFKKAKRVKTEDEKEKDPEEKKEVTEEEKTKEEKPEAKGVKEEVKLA
T1 sequence (O15379 whole entry): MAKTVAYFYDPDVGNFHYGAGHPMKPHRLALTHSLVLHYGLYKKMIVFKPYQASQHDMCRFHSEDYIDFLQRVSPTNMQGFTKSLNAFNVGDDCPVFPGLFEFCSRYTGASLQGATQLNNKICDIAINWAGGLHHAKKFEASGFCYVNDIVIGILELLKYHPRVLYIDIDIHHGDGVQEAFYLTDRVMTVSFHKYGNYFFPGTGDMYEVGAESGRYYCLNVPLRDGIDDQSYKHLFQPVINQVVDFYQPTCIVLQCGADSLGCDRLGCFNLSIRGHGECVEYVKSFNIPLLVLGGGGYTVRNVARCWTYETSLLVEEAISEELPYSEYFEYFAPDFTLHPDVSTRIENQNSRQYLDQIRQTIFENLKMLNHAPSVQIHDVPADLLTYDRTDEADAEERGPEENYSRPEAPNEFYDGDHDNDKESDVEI
T2 sequence (Q92769 whole entry): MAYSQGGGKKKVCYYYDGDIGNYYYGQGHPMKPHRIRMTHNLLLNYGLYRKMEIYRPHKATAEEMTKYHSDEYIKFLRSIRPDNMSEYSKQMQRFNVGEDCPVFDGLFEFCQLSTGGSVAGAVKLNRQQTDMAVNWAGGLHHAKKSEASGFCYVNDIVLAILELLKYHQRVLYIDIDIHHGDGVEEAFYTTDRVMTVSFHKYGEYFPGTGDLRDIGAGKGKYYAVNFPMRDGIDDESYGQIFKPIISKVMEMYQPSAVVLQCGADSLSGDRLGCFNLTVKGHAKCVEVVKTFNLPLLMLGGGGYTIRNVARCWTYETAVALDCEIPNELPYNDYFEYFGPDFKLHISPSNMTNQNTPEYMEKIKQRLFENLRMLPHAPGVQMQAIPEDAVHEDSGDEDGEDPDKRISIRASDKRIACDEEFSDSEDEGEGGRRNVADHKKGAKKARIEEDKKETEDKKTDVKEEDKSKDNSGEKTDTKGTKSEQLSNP

Cc1[nH]c2ccccc2c1CCNCc1ccc(/C=C/C(=O)NO)cc1
T1/2 (Histone deacetylase 3 [1]): > 1.05 h
T1/2 (Histone deacetylase 2 [2]): > 1670 h

C/C=C1\NC(=O)[C@H]2CSSCC/C=C/[C@H](CC(=O)N[C@H](C(C)C)C(=O)N2)OC(=O)[C@H](C(C)C)NC1=O [ROMIDEPSIN]
T1/2 (Histone deacetylase 3 [1]): > 1670 h
Ki (Histone deacetylase 1 [3]): 880 pM
T1/2 (Histone deacetylase 1 [4]): > 0.433 h
Ki (Histone deacetylase 1 [5]): ~20 pM

CC(=O)Nc1ccc(C(=O)Nc2ccccc2N)cc1
T1/2 (Histone deacetylase 3 [1]): > 0.833 h
T1/2 (Histone deacetylase 2 [2]): > 2.32 h
T1/2 (Histone deacetylase 1 [4]): > 23.1 h
T1/2 (Histone deacetylase 2 [6]): 3.33 h

CC(=O)Nc1ccc(C(=O)Nc2cc(-c3cccs3)ccc2N)cc1
T1/2 (Histone deacetylase 2 [7]): > 80 h
T1/2 (Histone deacetylase 3 [8]): 20 h
half-life [9]: 6.44 h

C[C@@H]1NC(=O)[C@H]2CCCN2C(=O)[C@H](CCCCCC(=O)[C@@H]2CO2)NC(=O)[C@@H](C)NC1=O
TIME (Histone deacetylase 3 [10]): 1.39 h
K (Histone deacetylase 3 [11]): 0.12 min⁻¹
K (Histone deacetylase 3 [12]): 0.012 min⁻¹

CC(=O)Nc1ccc(C(=O)Nc2ccc(F)cc2N)cc1
Ratio IC50 (Homo sapiens [13]): > 17
Ratio IC50 (Homo sapiens [14]): > 17
TIME (Histone deacetylase 3 [15]): 1.9 h
K (Histone deacetylase 3 [16]): 0.009 min⁻¹
T1/2 (Histone deacetylase 3 [17]): 1.32 h
K (Histone deacetylase 3 [18]): 5000 M⁻¹ s⁻¹
TIME (Histone deacetylase 2 [19]): 0.3 h
T1/2 (Histone deacetylase 2 [20]): 0.217 h
T1/2 (Histone deacetylase 1 [21]): 2.5 min

Nc1ccc(-c2ccncc2)cc1NC(=O)N1CCCC1
K (Histone deacetylase 1 [22]): 3080 M⁻¹ s⁻¹
K (Histone deacetylase 1 [23]): 0.011 min⁻¹

Cc1ccc(NC(=O)CCCCCC(=O)Nc2ccccc2N)cc1
T1/2 (Histone deacetylase 1 [24]): 1.5 h

Nc1ccc(-c2ccco2)cc1NC(=O)c1ccc(-c2cn(CS(=O)(=O)c3ccccc3)nn2)cc1
TIME (Histone deacetylase 1 [25]): 2.42 h
